Data on 86 compounds can be found in PubChem BioAssay AID1205 (EPA DSSTox, 2008).

Active and inactive are the calls of the source.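 Rule for the calls: active = tumour findings in long-term animal cancer tests in more than one sex, species or organ; inactive = no tumour finding and more than one negative test.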

The data set in a line: DSSTox (CPDBAS) Carcinogenic Potency Database Summary MultiCellCall Results. The note with it: animal carcinogenicity bioassays, multi-cell call summary. In short, it runs like this: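 Summary call drawn from chronic long-term cancer bioassays in rats, mice, hamsters, dogs and nonhuman primates, using the most positive result per sex-species. Score: multispecies=50, multisex=30, multisite=20, summed for combinations.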
With `Nc1ccc(-c2ccc(N)c(Cl)c2)cc1Cl`, the outcome was “active; multisite active; multisex active; multispecies active”.
For the compound `O=c1ccc2ccccc2o1`, the outcome was “active; multisite active; multisex active; multispecies active”.
Turning to `Nc1ccc(Sc2ccc(N)cc2)cc1`, the outcome was “active; multisite active; multisex active; multispecies active”.
Take `Cc1cc2c(nc1N)[nH]c1ccccc12`: the outcome was “active; multisite active; multisex active; multispecies active”.
As to `CN1[C@@H]2CC[C@H]1CC(OC(=O)C(CO)c1ccccc1)C2` (stereo partly specified), the outcome was “inactive; multisex inactive”.
The same measure for `C=C1C(CCl)(CCl)C2(Cl)C(Cl)C(Cl)C1(Cl)C2(Cl)Cl` (stereo unspecified): “active; multisex active”.
Regarding `CCCCCCCCCCCC[N+](C)(C)[O-]`, the outcome is “inactive; multisex inactive”.
In the case of `Cn1cc[nH]c1=S`, the outcome is “active; multisex active”.
As to `C=Cc1cccc[n+]1[O-]`, the outcome was “inactive; multispecies inactive”.
Regarding `CN(C)CCC(c1ccc(Cl)cc1)c1ccccn1` (stereo unspecified), the outcome was “inactive; multisex inactive; multispecies inactive”.
In the case of `CC1=CC(=O)NS(=O)(=O)O1`, the outcome is “inactive; multisex inactive”.
`C=C(C)[C@H]1CC=C(C)C(=O)C1`: the outcome was “inactive; multisex inactive”.
Consider `CCOP(=S)(OCC)SC1OCCOC1SP(=S)(OCC)OCC` (stereo unspecified), for which the outcome was “inactive; multisex inactive; multispecies inactive”.
As to `O=P(O)(O)O`, the outcome is “inactive; multisex inactive”.
For the compound `Cc1ccc(O)c(O)c1`, the outcome is “active; multisex active”.
As for `CCCN(N)C=O`, the outcome is “active; multisite active; multisex active”.
In the case of `CCN(CC)C(=S)[S-].CCN(CC)C(=S)[S-].[Zn+2]` it was “inactive; multisex inactive”; in that of `Cn1nc(CO)nc1NCCCOc1cccc(CN2CCCCC2)c1`, “active; multisex active”; in that of `O=C1OC(c2ccc(O)cc2)(c2ccc(O)cc2)c2ccccc21`, “active; multisite active; multisex active; multispecies active”.
The same measure for `Clc1ccc(C(c2ccc(Cl)cc2)C(Cl)Cl)cc1`: “active; multisite active; multisex active”; for `N#CN=C(N)N`: “inactive; multisex inactive”; for `CS(=O)(=O)c1ccc([C@@H](O)[C@@H](CO)NC(=O)C(Cl)Cl)cc1`: “inactive; multisex inactive”.
As to `Cc1ccc(Cc2cnc(NCCSCc3ccc(CN(C)C)o3)[nH]c2=O)cn1`, the outcome was “active; multisex active”.
As to `COP(=S)(OC)Oc1ccc([N+](=O)[O-])cc1`, the outcome was “inactive; multisex inactive; multispecies inactive”.
Regarding `CCCCN(CC)C(=O)SCCC`, the outcome is “inactive; multisex inactive”.
With `COC(C(=O)O)c1ccccc1` (stereo unspecified), the outcome was “inactive; multisex inactive”.
On to `O=C(O)c1ccccc1`, for which the outcome was “inactive; multisex inactive; multispecies inactive”.
Consider `CC1(C)S[C@@H]2[C@H](NC(=O)[C@H](N)c3ccccc3)C(=O)N2[C@H]1C(=O)O`, for which the outcome was “inactive; multisex inactive; multispecies inactive”.
With `C/C=C(\C)C(=O)O[C@@H]1CCN2CC=C(COC(=O)C(O)(C(C)C)C(C)O)[C@H]12` (stereo partly specified), the outcome was “active; multisite active”.
For the compound `O=NN(CC(F)(F)F)CC(F)(F)F`, the outcome is “inactive; multisex inactive”.
In the case of `CO[C@@]12[C@H](COC(N)=O)C3=C(C(=O)C(C)=C(N)C3=O)N1C[C@@H]1N[C@@H]12` it was “active; multisex active”; in that of `Nc1ccc(Cc2ccc(N)cc2)cc1`, “active; multisite active; multisex active; multispecies active”.
`C=Cc1cccc(C)c1`: the outcome is “inactive; multisex inactive; multispecies inactive”.
On to `O=C1C(O)N=C(c2ccccc2F)c2cc(Cl)ccc2N1CCO` (stereo unspecified), for which the outcome is “inactive; multisex inactive”.
As to `CCCCNN`, the outcome was “active; multisex active”.
Turning to `CN(N=O)c1ccccc1`, the outcome is “active; multisex active”.
Turning to `CCCC[C@H](C)[C@@H](OC(=O)C[C@H](CC(=O)O)C(=O)O)[C@@H](C[C@H](C)C[C@@H](O)CCCC[C@@H](O)C[C@H](O)[C@H](C)N)OC(=O)C[C@H](CC(=O)O)C(=O)O`, the outcome is “active; multisite active; multisex active; multispecies active”.
Turning to `O=C1CCC(=O)O1`, the outcome was “inactive; multisex inactive; multispecies inactive”.
Regarding `C[N+](=O)[O-]`, the outcome was “active; multisite active; multisex active; multispecies active”.
Take `CC1(C)[C@H](C(=O)O[C@H](C#N)c2cccc(Oc3ccccc3)c2)[C@@H]1C=C(Br)Br`: the outcome was “inactive; multisex inactive; multispecies inactive”.
For `Clc1c(Cl)c(Cl)c(Cl)c(Cl)c1Cl`, the outcome is “active; multisite active; multisex active; multispecies active”.
Take `CCCCC1C(=O)N(c2ccccc2)N(c2ccccc2)C1=O`: the outcome is “active; multisite active; multisex active; multispecies active”.
Regarding `CC(C)(C)NC[C@H](O)COc1cccc2c1CCCC2=O`, the outcome is “inactive; multisex inactive; multispecies inactive”.
Turning to `CCCCC1(COC(=O)CCC(=O)O)C(=O)N(c2ccccc2)N(c2ccccc2)C1=O`, the outcome is “inactive; multisex inactive”.
As for `CCCCCCCCCCN(C)N=O`, the outcome is “active; multisite active”.
The same measure for `Nc1ccccc1N`: “active; multisex active; multispecies active”; for `Nc1ccc2c(c1)C(=O)c1ccccc1C2=O`: “active; multisite active; multisex active; multispecies active”; for `O=[N+]([O-])/C=C/c1ccccc1`: “inactive; multisex inactive; multispecies inactive”.
Take `O=P(O)(OCC(Br)CBr)OCC(Br)CBr` (stereo unspecified): the outcome is “active; multisite active; multisex active”.
In the case of `CC(C)(C)c1cc([N+](=O)[O-])cc([N+](=O)[O-])c1OS(C)(=O)=O`, the outcome was “inactive; multisex inactive”.
Consider `CCn1nc(C)c2c1C(c1ccccc1)=NCC(=O)N2`, for which the outcome was “active; multisex active”.
`Nc1cc(Cl)c(-c2cc(Cl)c(N)cc2Cl)cc1Cl`: the outcome was “inactive; multisex inactive; multispecies inactive”.
For the compound `[Cl-].[Cl-].[Cl-].[Fe+3]`, the outcome is “inactive; multisex inactive”.
For the compound `CCOC(=O)CC(SP(=S)(OC)OC)C(=O)OCC` (stereo unspecified), the outcome is “inactive; multisex inactive; multispecies inactive”.
The same measure for `CBr`: “inactive; multisex inactive; multispecies inactive”.
For `OCCN(CCO)CCO`, the outcome is “active; multisex active”.
In the case of `O=NN(c1ccccc1)c1ccccc1` it was “active; multisex active”; in that of `OCc1ccccc1`, “inactive; multisex inactive; multispecies inactive”; in that of `O=c1[nH]c(=O)n(C2CCCO2)cc1F` (stereo unspecified), “inactive; multisex inactive; multispecies inactive”.
With `CCOCCc1c(-c2ccccc2)nc(N)n2ncnc12`, the outcome is “active; multisite active; multisex active”.
The same measure for `CN(Cc1cnc2nc(N)nc(N)c2n1)c1ccc(C(=O)N[C@@H](CCC(=O)O)C(=O)O)cc1`: “inactive; multisex inactive; multispecies inactive”.
`CC[N+]([O-])=NC`: the outcome was “active; multisite active”.
In the case of `CN(C)C(=O)Nc1ccc(Cl)c(Cl)c1` it was “inactive; multisex inactive”; in that of `CCBr`, “active; multisite active; multisex active; multispecies active”.
In the case of `ClCOCCl`, the outcome was “active; multisite active; multisex active; multispecies active”.
In the case of `COS(C)(=O)=O` it was “active; multisite active”; in that of `CC[N+](=O)[O-]`, “inactive; multisex inactive”; in that of `Nc1ncn[nH]1`, “active; multisite active; multisex active; multispecies active”.
On to `CN(CCCC(=O)c1cccnc1)N=O`, for which the outcome was “active; multisite active”.
The same measure for `CCCNC(=O)NS(=O)(=O)c1ccc(Cl)cc1`: “inactive; multisex inactive; multispecies inactive”.
In the case of `CC(=O)O[C@]1(C(C)=O)CC[C@H]2[C@@H]3C=C(Cl)C4=CC(=O)[C@@H]5C[C@@H]5[C@]4(C)[C@H]3CC[C@@]21C` it was “active; multisite active; multisex active”.
`CCc1ccccc1`: the outcome is “active; multisite active; multisex active; multispecies active”.
As for `Nc1ccc(S(=O)(=O)c2ccc(N)cc2)cc1`, the outcome was “active; multisite active”.
For the compound `CC(N)=O`, the outcome is “active; multisite active; multisex active; multispecies active”.
For the compound `O=C1O[C@@H](CN2CCOCC2)CN1/N=C/c1ccc([N+](=O)[O-])o1`, the outcome was “active; multisite active”.
As for `CCCCCN(N=O)C(N)=O`, the outcome is “active; multisite active; multisex active”.
With `Oc1cccc2cccnc12.Oc1cccc2cccnc12.[Cu]`, the outcome was “inactive; multisex inactive”.
For the compound `O=NN1CCCCC1C(=O)O` (stereo unspecified), the outcome is “inactive; multisex inactive”.
In the case of `CC(C)[N+](=O)[O-]` it was “inactive; multisex inactive”; in that of `Cc1cc(Cc2ccc(N)c(C)c2)ccc1N`, “active; multisite active; multisex active”; in that of `Nc1c(Br)cc(Br)c2c1C(=O)c1ccccc1C2=O`, “active; multisite active; multisex active; multispecies active”.
With `CCN(CC)C(=S)[S-].CCN(CC)C(=S)[S-].[Cd+2]`, the outcome is “inactive; multisex inactive”.
The same measure for `CC(=O)CN(N=O)C(N)=O`: “active; multisex active”.
Turning to `C=CCc1ccc2c(c1)OCO2`, the outcome was “active; multisex active; multispecies active”.
As for `CC(/C=C/C=C(\C)C(=O)O[C@@H]1O[C@H](CO[C@@H]2O[C@H](CO)[C@@H](O)[C@H](O)[C@H]2O)[C@@H](O)[C@H](O)[C@H]1O)=C\C=C\C=C(C)\C=C\C=C(/C)C(=O)O[C@@H]1O[C@H](CO[C@@H]2O[C@H](CO)[C@@H](O)[C@H](O)[C@H]2O)[C@@H](O)[C@H](O)[C@H]1O`, the outcome was “inactive; multisex inactive”.
For `COc1ccc([N+](=O)[O-])cc1N`, the outcome is “active; multisite active; multisex active; multispecies active”.
